From patent US12466834B2, “Imidazodiazepinediones and methods of use thereof” (GFB (ABC), LLC, priority 2018, dated 2025)

Target: T1, human TRPC5 (Homo sapiens, UniProt Q9UL62)
T1 construct: expressed in transfected cells
T1 sequence (Q9UL62 1-973): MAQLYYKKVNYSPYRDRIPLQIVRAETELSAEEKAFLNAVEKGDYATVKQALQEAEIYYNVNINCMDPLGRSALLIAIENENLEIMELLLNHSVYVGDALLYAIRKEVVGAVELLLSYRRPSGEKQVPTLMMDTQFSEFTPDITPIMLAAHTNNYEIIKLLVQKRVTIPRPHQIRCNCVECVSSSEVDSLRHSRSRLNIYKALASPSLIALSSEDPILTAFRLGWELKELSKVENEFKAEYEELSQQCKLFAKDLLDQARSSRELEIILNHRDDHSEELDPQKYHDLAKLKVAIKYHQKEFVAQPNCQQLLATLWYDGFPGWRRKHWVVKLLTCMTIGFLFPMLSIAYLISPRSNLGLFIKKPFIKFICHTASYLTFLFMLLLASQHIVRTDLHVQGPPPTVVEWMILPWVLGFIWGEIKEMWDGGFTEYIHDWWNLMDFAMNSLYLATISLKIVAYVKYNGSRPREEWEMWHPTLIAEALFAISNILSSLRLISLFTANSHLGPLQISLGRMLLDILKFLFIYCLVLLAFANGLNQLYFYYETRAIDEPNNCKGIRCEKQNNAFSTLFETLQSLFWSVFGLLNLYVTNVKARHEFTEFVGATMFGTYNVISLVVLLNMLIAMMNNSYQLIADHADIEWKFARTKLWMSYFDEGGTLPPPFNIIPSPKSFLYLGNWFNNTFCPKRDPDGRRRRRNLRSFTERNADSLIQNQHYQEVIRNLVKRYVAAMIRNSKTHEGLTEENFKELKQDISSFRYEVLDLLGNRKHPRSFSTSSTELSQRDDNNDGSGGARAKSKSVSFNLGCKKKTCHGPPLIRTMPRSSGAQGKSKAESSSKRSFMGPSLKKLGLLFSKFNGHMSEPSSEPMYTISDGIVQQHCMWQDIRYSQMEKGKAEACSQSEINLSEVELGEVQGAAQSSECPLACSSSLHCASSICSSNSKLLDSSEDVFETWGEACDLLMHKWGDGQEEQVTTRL
Test: Automated patch clamp assay (QPatch), antagonist mode
Format: cell-based
Conditions: HEK-TREx hTRPC5 cells; channel activated with Rosiglitazone 30 μM; normalised to ML-204 block; read-out: Qpatch Potency Range
Description: ICLN-1633 cells (HEK-TREx hTRPC5) expressing TRPC5 were generated as follows. Commercially available HekTrex-293 cells were seeded at 0.7×10^6 cells/well in a 1×6-well plate 24 hrs prior to transfection using 2 mL cell growth media containing no antibiotics (1× DMEM/high glucose (Hyclone #SH30022.02); 10% fetal bovine serum (Sigma) 2 mM sodium pyruvate, 10 mM HEPES). The human TRPC5 coding sequence (NM_012471 with a silent T478C mutation) was cloned into pcDNA5/TO (Invitrogen; Cat No. V103320) using hygromycin as the resistance gene and the plasmid (SEQ ID NO:1) propagated using T-Rex-293 cells (Invitrogen; Cat No. R71007) following manufacturer's directions. On day 2, 2 μg of plasmid DNA plus 6 μl of Xtreme-GENE HP reagent in Optimem (200 μl total volume) was prepared and incubated for 15 min at room temperature. This plasmid solution was then gently overlayed dropwise onto each well and the plate was gently swirled to mix complex with the media for approximately 30 seconds. Transfected cells were incubated at 37° C. in a 10% CO2 incubator for 24 hrs. The transfected cells were harvested and transferred into 2×150 mm dishes containing cell growth media with no antibiotics at 37° C.
The next day selection was initiated to generate a stable pool by adding cell growth media containing 150 μg/mL Hygromycin and 5 μg/mL Blasticidin and cells were allowed to grow. Media with the selection agent was changed every 1-2 days as needed to remove dead cells. After 7 days, the hygromycin concentration was reduced to 75 μg/mL and cells growth was allowed to continue.
Single clones were selected as follows. The stable pool was diluted to 10 cells/mL and seeded (100 μl/well) into 24×96 well plates (˜1 cell/well) and allowed to grow for 7 days in cell growth media. Fresh media (100 μl) was added and the cells allowed to grow for another 1-2 weeks and then stored frozen or used immediately.
The automated electrophysiological assay was carried out at room temperature. On the day of the experiment, TRPC5 cells were cultured according to our Standard Operating Procedure. Briefly, cells were harvested using TrypLE™ Express, re-suspended in serum free medium, added to the automated platform and used within 0.5-3 hours. Internal and external physiological solutions were freshly prepared prior to the assay. The external solution contained: 145 mM NaCl, 4 mM KCl, 2 mM CaCl2, 1 mM MgCl2, 10 mM HEPES, 10 mM glucose, pH 7.4 with NaOH and 310 mOsm/L. The internal solution contained 120 mM L-aspartic acid, 120 mM CsOH·H2O, 20 mM CsCl, 2 mM MgCl2, 8.8 mM CaCl2, 10 mM EGTA, 10 mM HEPES and 2 mM Na2ATP; pH 7.2 with CsOH and 330 mOsm/L. The free internal Ca^2+ concentration was buffered to 1 μM, according to the WCabuf software. The automated electrophysiological platform QPatch 16 from Sophion (Denmark) was used to carry out the compounds profiling. The series resistance and quality of seals were continuously monitored during the experiments. Data were analyzed using Sophion QPatch assay software 5.6 (Odense). Data were normalized using the maximum activation obtained during the pre-compound agonist application as the top value (1.0) and maximum inhibition induced by ML-204 as the bottom value (0.0). IC50 values were calculated using a least squares regression algorithm (Hill equation).
To monitor the ion currents, a voltage ramp from −100 mV to +100 mV, over 300 ms, was applied every 10 seconds, from a holding potential of −60 mV. Antagonist-mode: After recording for a minimum of 60 seconds control period, the EC60 concentration of the TRPC5 agonist, Rosiglitazone (30 μM), was applied to activate the channel. After reaching steady-state, co-application of increasing concentrations of test compound were applied followed by two applications of Rosiglitazone EC60 and a saturating concentration of the specific blocker ML-204 (100 μM).

SMILES | IC50
C[C@@H]1C(=O)N(C)c2nc(Oc3cccc(F)c3)n(Cc3ccc(Cl)cc3)c2C(=O)N1CCCO (single isomer, unassigned) [Compound 19] | > 30 µM
O=C1c2c(nc(Oc3cccc(OC(F)(F)F)c3)n2Cc2ccc(Cl)cc2)N2CCC[C@H]2C(=O)N1CCCO (single isomer, unassigned) [Compound 22] | > 30 µM
O=C1c2c(nc(Oc3cccc(OC(F)(F)F)c3)n2Cc2ccc(Cl)cc2)N2CCC[C@@H]2C(=O)N1CCCO (single isomer, unassigned) [Compound 23] | 1 to 30 µM
CN1CC(=O)N(CCCO)C(=O)c2c1nc(Oc1cccc(OC(F)(F)F)c1)n2Cc1ccc(Cl)cc1 [Compound 21, 1-[(4-chlorophenyl)methyl]-7-(3-hydroxypropyl)-4-methyl-2-[3-(trifluoromethoxy)phenoxy]-1H,4H,5H,6H,7H,8H-imidazo[4,5-e][1,4]diazepine-6,8-dione] | 1 to 30 µM
